The values that follow come from patent US20240041042A1, “1-(PYRIDYL)-5-AZINYLPYRAZOLE DERIVATIVES, AND THEIR USE FOR CONTROL OF UNDESIRED PLANT GROWTH” (Bayer Aktiengesellschaft, priority 2020, published 2024).

The structures appear in SMILES notation. Like-named read-outs stand apart in the source and are kept apart here.

Common to all, as to type: in vivo
Data set [1] relates to Setaria viridis (SETVI). The experiment in a line: Pre-emergence herbicidal action against SETVI. The settings on record: dosage 320 g/ha. The method in brief:
(§1)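 Dosages of 320 g/ha or less; pre-emergence; WP or EC in aqueous spray, 0.5% additive, 600 l/ha; greenhouse; visual % effect after ~3 wk relative to control pots.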

Data set [2] concerns Lolium rigidum (LOLRI). Briefly: Post-emergence herbicidal action against LOLRI. The following applies: dosage 320 g/ha. The method in brief:
(§2)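 Greenhouse plants sprayed at the one-leaf stage, 2–3 weeks after sowing, with WP or EC formulations plus 0.5% additive at 600 l/ha water. Activity rated visually after about 3 weeks versus untreated controls (100% = dead, 0% = like control), at 320 g/ha or lower.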

The test system of data set [3] is Verconica persica (VERPE). Briefly: Post-emergence herbicidal action against VERPE. The following applies: 320 g/ha, VERPE. The gist of the method: as §2
The test system of data set [4] is Viola tricolor (VIOTR). The experiment in a line: Pre-emergence herbicidal action against VIOTR. The settings on record: 320 g/ha, Viola tricolor. The method in brief: as §1
In data set [5] the test system is Lolium rigidum (LOLRI). The experiment in a line: Pre-emergence herbicidal action against LOLRI. The following applies: dosage 320 g/ha. The gist of the method:
as §1

Data set [6] has as its system Setaria viridis (SETVI). Briefly: Post-emergence herbicidal action against SETVI. The settings on record: dosage 320 g/ha. The method in brief:
as §2

The test system of data set [7] is Zea mays (ZEAMX). The settings on record: pre-emergence, crop plant compatibility, in comparison to untreated controls. The gist of the method: (§3)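 Crop injury rated visually in percent against untreated plants roughly 3 weeks after treatment (0% no effect, 100% plants dead). Compounds, as WP or EC with 0.5% additive in 600 l/ha water, were applied to the covering soil right after sowing; greenhouse growth. Suffixes a, b, c denote different dosages.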

The test system of another data set is Glycine max (GLXMA). The following applies: pre-emergence, 80 g/ha, crop plant compatibility, in comparison to untreated controls. The gist of the method: as §3
In data set [8] the test system is Avena fatua (AVEFA). The experiment in a line: Pre-emergence herbicidal action against AVEFA. The following applies: 320 g/ha, visual scoring after about 3 weeks vs untreated controls. The method in brief:
as §1

The subject of data set [9] is Polygonum convolvulus (POLCO). Briefly: Post-emergence herbicidal action against POLCO. The settings on record: dosage 320 g/ha. The gist of the method: as §2
The subject of data set [10] is Oryza sativa (ORYSA). The settings on record: crop plant compatibility, effect in comparison to untreated controls. The method in brief: (§4)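 Test crops were treated 2 to 3 weeks after sowing, once they reached one leaf, by spraying compound in water with 0.5% additive at 600 l/ha. Visual scoring compared them with untreated controls roughly 3 weeks on, and appendices a, b and c denote different doses.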

Data set [11] relates to Amaranthus retroflexus (AMARE). The experiment in a line: Post-emergence herbicidal action against AMARE. The gist of the method: as §2
The subject of data set [12] is Echinochloa crus-galli (ECHCG). Briefly: Post-emergence herbicidal action against ECHCG. The settings on record: dosage 320 g/ha. The method in brief:
as §2

For data set [13], the system named is Alopecurus myosuroides (ALOMY). The experiment in a line: Pre-emergence herbicidal action against ALOMY. The settings on record: 320 g/ha; scored visually after about 3 weeks; 100% = plants have died. The method in brief: as §1
Data set [14] has as its system Amaranthus retroflexus (AMARE). The experiment in a line: Pre-emergence herbicidal action against AMARE. The settings on record: 320 g/ha, visual scoring after about 3 weeks vs untreated controls. The gist of the method: as §1
For data set [15], the system named is Matricaria inodora (MATIN). Briefly: Pre-emergence herbicidal action against MATIN. The gist of the method: as §1
The test system of data set [16] is Viola tricolor (VIOTR). Briefly: Post-emergence herbicidal action against VIOTR. The following applies: 320 g/ha. The gist of the method:
as §2

Data set [17] concerns Alopecurus myosuroides (ALOMY). The experiment in a line: Post-emergence herbicidal action against ALOMY. The following applies: 320 g/ha, visual rating about 3 weeks after treatment vs untreated controls (100% = plants have died, 0% = like control plants). The method in brief: as §2
In data set [18] the test system is Avena fatua (AVEFA). Briefly: Post-emergence herbicidal action against AVEFA. The settings on record: 320 g/ha, visual rating about 3 weeks after treatment. The method in brief:
as §2

The test system of another data set is Brassica napus (BRSNW). The following applies: 80 g/ha, crop plant compatibility, in comparison to untreated controls. The method in brief:
as §3

Data set [19] has as its system Oryza sativa (ORYSA). The settings on record: pre-emergence, crop plant compatibility, in comparison to untreated controls. The gist of the method:
as §3

Data set [20] relates to Triticum aestivum (TRZAS). The settings on record: pre-emergence, crop plant compatibility, in comparison to untreated controls. The method in brief: as §3
In data set [21] the test system is Zea mays (ZEAMX). The settings on record: crop plant compatibility, effect vs untreated controls. The method in brief: as §4
For data set [22], the system named is Triticum aestivum (TRZAS). The following applies: crop plant compatibility, 80 g/ha, effect vs untreated controls. The gist of the method:
as §4

For data set [23], the system named is Abutilon theophrasti (ABUTH). Briefly: Post-emergence herbicidal action against ABUTH. The following applies: 320 g/ha, visual rating about 3 weeks after treatment vs untreated controls (100% = plants have died, 0% = like control plants). The gist of the method:
as §2

Take `C[C@@H](Oc1nn(-c2ncccc2F)c(-c2ccc(F)nc2)c1F)C(=O)O` [Example I-306]: the “Pre-emergence action against SETVI in %” value in the data set with Setaria viridis (SETVI) [1] came out at 80%. In addition, in the data set with Lolium rigidum (LOLRI) [2], the “Post-emergence action against LOLRI in %” value is given as 90%. Also, the “Post-emergence action against VERPE in %” value in data set [3] amounted to 90%. For the same compound, in the data set with Viola tricolor (VIOTR) [4], the “Pre-emergence action against VIOTR in %” value was found to be 80%. Further, the “Pre-emergence action against LOLRI in %” value in the data set on Lolium rigidum (LOLRI) [5] is 100%. Further, the “Post-emergence action against SETVI in %” value with Setaria viridis (SETVI) [6] stood at 90%. Besides, the “Pre-emergence action against ZEAMX in %” value in the data set on Zea mays (ZEAMX) [7] (80 g/ha) stood at 20%. For the same compound, in the data set with Glycine max (GLXMA), the “Pre-emergence action against GLXMA in %” value turned out to be 0%. For the same compound, in the data set on Avena fatua (AVEFA) [8], the “Pre-emergence action against AVEFA in %” value is on record as 80%. In data set [9], the “Post-emergence action against POLCO in %” value worked out at 80%. The “Post-emergence action against ORYSA in %” value in the data set with Oryza sativa (ORYSA) [10] (80 g/ha) came to 0%. In addition, the “Post-emergence action against AMARE in %” value in data set [11] (80 g/ha, visual rating about 3 weeks after treatment vs untreated controls (100% = plants have died, 0% = like control plants)) came out at 80%; in [11] (320 g/ha, visual rating about 3 weeks after treatment) it was 80%. In [12], the “Post-emergence action against ECHCG in %” value came to 90%. Besides, in data set [13], the “Pre-emergence action against ALOMY” value is listed as 90%. Moreover, in data set [14], the “Pre-emergence action against AMARE in %” value worked out at 90%. Also, the “Pre-emergence action against MATIN in %” value in data set [15] (dosage 80 g/ha) and in data set [15] (dosage 320 g/ha) was 90% throughout. For the same compound, the “Post-emergence action against VIOTR in %” value in the data set on Viola tricolor (VIOTR) [16] was 80%. Further, in data set [17], the “Post-emergence action against ALOMY in %” value was found to be 100%. For the same compound, the “Post-emergence action against AVEFA in %” value in the data set with Avena fatua (AVEFA) [18] turned out to be 80%.

With `CC(=O)CNC(=O)COc1nn(-c2ccnc(F)c2)c(-c2ccc(F)nc2)c1Br` [III-07], the figures for the “Pre-emergence action against ZEAMX in %” value in the data set on Zea mays (ZEAMX) [7] (80 g/ha) and with Zea mays (ZEAMX) [7] (320 g/ha) were 0% and 10%, respectively. In addition, the “Pre-emergence action against BRSNW in %” value in the data set with Brassica napus (BRSNW) turned out to be 0%. The figures for the “Pre-emergence action against ORYSA in %” value in the data set with Oryza sativa (ORYSA) [19] (80 g/ha) and in the data set with Oryza sativa (ORYSA) [19] (320 g/ha) were 0% and 20%, respectively. Moreover, the “Pre-emergence action against TRZAS in %” value in [20] (80 g/ha) and in data set [20] (320 g/ha) was 0% each time. Also, the “Post-emergence action against ZEAMX in %” value with Zea mays (ZEAMX) [21] (80 g/ha) and with Zea mays (ZEAMX) [21] (320 g/ha) was 0% in each case. The “Post-emergence action against ORYSA in %” value in the data set with Oryza sativa (ORYSA) [10] (80 g/ha) and in the data set on Oryza sativa (ORYSA) [10] (320 g/ha) was 0% each time. Further, the “Post-emergence action against TRZAS in %” value in [22] is listed as 0%. Also, the “Post-emergence action against ABUTH in %” value in [23] was determined as 80%. In addition, the “Pre-emergence action against ALOMY” value in [13] is recorded as 80%.
